Results taken from PubChem BioAssay AID1963976 (Molecular Pharmacology Branch, DTP, NCI, 2024).

Test system: 435261-313-R-J1-PDC tumor spheroid viability
Experiment: Anticancer human tumor 435261-313-R-J1-PDC patient-derived colon adenocarcinoma cell line growth inhibition [PI3K]
Conditions: spheroids with HUVEC and MSC; for IC50: curve of first compound; for viability, T/C: stronger effect = lower value
How it was run: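 We assembled tumor spheroids that included a stromal compartment of HUVEC and MSCs, then exposed them to targeted agents alone and together with PI3K pathway inhibitors. Concentration series descended by half-log from clinically achievable Cmax levels. Viability served as the endpoint.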

[1] = second compound 0.0316 µM, first compound 0.0316 µM
[2] = second compound 0.0316 µM, first compound 0.1 µM
[3] = second compound 0.1 µM, first compound 0.0316 µM
[4] = second compound 0.1 µM, first compound 0.1 µM
[5] = second compound 0.316 µM, first compound 0.0316 µM
[6] = second compound 0.316 µM, first compound 0.1 µM
[7] = second compound 1 µM, first compound 0.0316 µM
[8] = second compound 1 µM, first compound 0.1 µM
[9] = second compound 3.16 µM, first compound 0.0316 µM
[10] = second compound 3.16 µM, first compound 0.1 µM
[11] = second compound 10 µM, first compound 0.0316 µM
[12] = second compound 10 µM, first compound 0.1 µM

## Cn1ncc(Cl)c1-c1cc(C(=O)NC(CN)Cc2cccc(F)c2)sc1Cl (centres undefined) + Cc1nc(NC(=O)N2CCCC2C(N)=O)sc1-c1ccnc(C(C)(C)C(F)(F)F)c1
Second compound 0.0316 µM
  IC50: 0.579 µM
Second compound 0.1 µM
  IC50: 0.4 µM
Second compound 0.316 µM
  IC50: < 0.0316 µM
Second compound 1 µM
  IC50: < 0.0316 µM
Second compound 3.16 µM
  IC50: < 0.0316 µM
Second compound 10 µM
  IC50: < 0.0316 µM
[1]
  viability, T/C: 83.5%
[2]
  viability, T/C: 67.3%
Second compound 0.0316 µM, first compound 0.316 µM
  viability, T/C: 71.8%
Second compound 0.0316 µM, first compound 1 µM
  viability, T/C: 31.2%
Second compound 0.0316 µM, first compound 3.16 µM
  viability, T/C: 18.6%
Second compound 0.0316 µM, first compound 10 µM
  viability, T/C: 6.47%
[3]
  viability, T/C: 58.5%
[4]
  viability, T/C: 82%
Second compound 0.1 µM, first compound 0.316 µM
  viability, T/C: 51.6%
Second compound 0.1 µM, first compound 1 µM
  viability, T/C: 28.1%
Second compound 0.1 µM, first compound 3.16 µM
  viability, T/C: 21.7%
Second compound 0.1 µM, first compound 10 µM
  viability, T/C: 6.76%
[5]
  viability, T/C: 42.9%
[6]
  viability, T/C: 41%
Second compound 0.316 µM, first compound 0.316 µM
  viability, T/C: 38%
Second compound 0.316 µM, first compound 1 µM
  viability, T/C: 27.2%
Second compound 0.316 µM, first compound 3.16 µM
  viability, T/C: 14.2%
Second compound 0.316 µM, first compound 10 µM
  viability, T/C: 7.01%
[7]
  viability, T/C: 31.9%
[8]
  viability, T/C: 34.8%
Second compound 1 µM, first compound 0.316 µM
  viability, T/C: 29.2%
Second compound 1 µM, first compound 1 µM
  viability, T/C: 19.1%
Second compound 1 µM, first compound 3.16 µM
  viability, T/C: 16.2%
Second compound 1 µM, first compound 10 µM
  viability, T/C: 4.12%
[9]
  viability, T/C: 15.7%
[10]
  viability, T/C: 14.7%
Second compound 3.16 µM, first compound 0.316 µM
  viability, T/C: 15.8%
Second compound 3.16 µM, first compound 1 µM
  viability, T/C: 16.9%
Second compound 3.16 µM, first compound 3.16 µM
  viability, T/C: 11.9%
Second compound 3.16 µM, first compound 10 µM
  viability, T/C: 1.21%
[11]
  viability, T/C: 9.08%
[12]
  viability, T/C: 7.96%
Second compound 10 µM, first compound 0.316 µM
  viability, T/C: 6.42%
Second compound 10 µM, first compound 1 µM
  viability, T/C: 8.32%
Second compound 10 µM, first compound 3.16 µM
  viability, T/C: 4.5%
Second compound 10 µM, first compound 10 µM
  viability, T/C: 0.47%

## Cn1ncnc1[C@H]1c2n[nH]c(=O)c3cc(F)cc(c23)N[C@@H]1c1ccc(F)cc1 + Cc1nc(NC(=O)N2CCCC2C(N)=O)sc1-c1ccnc(C(C)(C)C(F)(F)F)c1
Second compound 0.0316 µM
  IC50: > 0.1 µM
Second compound 0.1 µM
  IC50: > 0.1 µM
Second compound 0.316 µM
  IC50: 0.00618 µM
Second compound 1 µM
  IC50: < 0.000316 µM
Second compound 3.16 µM
  IC50: < 0.000316 µM
Second compound 10 µM
  IC50: < 0.000316 µM
Second compound 0.0316 µM, first compound 0.000316 µM
  viability, T/C: 81.6%
Second compound 0.0316 µM, first compound 0.001 µM
  viability, T/C: 65%
Second compound 0.0316 µM, first compound 0.00316 µM
  viability, T/C: 79.8%
Second compound 0.0316 µM, first compound 0.01 µM
  viability, T/C: 77.1%
[1]
  viability, T/C: 79.1%
[2]
  viability, T/C: 66.4%
Second compound 0.1 µM, first compound 0.000316 µM
  viability, T/C: 63%
Second compound 0.1 µM, first compound 0.001 µM
  viability, T/C: 93.9%
Second compound 0.1 µM, first compound 0.00316 µM
  viability, T/C: 65.5%
Second compound 0.1 µM, first compound 0.01 µM
  viability, T/C: 64.8%
[3]
  viability, T/C: 66.4%
[4]
  viability, T/C: 56.3%
Second compound 0.316 µM, first compound 0.000316 µM
  viability, T/C: 35.8%
Second compound 0.316 µM, first compound 0.001 µM
  viability, T/C: 62.8%
Second compound 0.316 µM, first compound 0.00316 µM
  viability, T/C: 49.4%
Second compound 0.316 µM, first compound 0.01 µM
  viability, T/C: 59.8%
[5]
  viability, T/C: 39.4%
[6]
  viability, T/C: 36.6%
Second compound 1 µM, first compound 0.000316 µM
  viability, T/C: 36.5%
Second compound 1 µM, first compound 0.001 µM
  viability, T/C: 29.8%
Second compound 1 µM, first compound 0.00316 µM
  viability, T/C: 24.6%
Second compound 1 µM, first compound 0.01 µM
  viability, T/C: 30.5%
[7]
  viability, T/C: 26.9%
[8]
  viability, T/C: 22.8%
Second compound 3.16 µM, first compound 0.000316 µM
  viability, T/C: 16.4%
Second compound 3.16 µM, first compound 0.001 µM
  viability, T/C: 21.4%
Second compound 3.16 µM, first compound 0.00316 µM
  viability, T/C: 17.5%
Second compound 3.16 µM, first compound 0.01 µM
  viability, T/C: 18.5%
[9]
  viability, T/C: 18.4%
[10]
  viability, T/C: 16.7%
Second compound 10 µM, first compound 0.000316 µM
  viability, T/C: 10.5%
Second compound 10 µM, first compound 0.001 µM
  viability, T/C: 9.23%
Second compound 10 µM, first compound 0.00316 µM
  viability, T/C: 7.91%
Second compound 10 µM, first compound 0.01 µM
  viability, T/C: 9.55%
[11]
  viability, T/C: 9%
[12]
  viability, T/C: 7.58%
